This is an account of results in patent US20170276611A1, “CHALCOGENOPYRYLIUM DYES, COMPOSITIONS COMPRISING SAME, COMPOSITE NANOPARTICLES COMPRISING SAME, AND METHODS OF MAKING AND USING THE SAME” (The Research Foundation for The State University of New York, priority 2014, published 2017).

Structures are written as SMILES.

Common to all, as to type: physicochemical
A short description of series [1]: Fluorescence of dyes incorporated in silica without gold nanoparticle. The following applies: dye in silica without gold nanoparticle, excited at 785-nm, 50 μW/cm^2, 1.0 s. An excerpt:
Comparison of CP-dye 3 with a cyanine-based SERRS-reporter. In order to assess the quality of our optimized nanoprobe, thiopyrylium dye 3 and commercially available IR792 (FIG. 19 A), which has been previously used to generate surface-enhanced resonance Raman scattering nanoprobes, were studied. […] It is interesting to note that a fluorescence background is minimal in the SERRS spectra of the CP- and cyanine-based SERRS-nanoprobes. Whereas fluorescence interference would not be expected from chalcogenopyrylium dyes containing heavy chalcogens that enhance intersystem crossing, fluorescence interference could be expected for the cyanine dye IR792. […] This is due to quenching effects near the surface of the nanoparticle.

Series [2] in a line: UV/VIS-near-IR absorption of the dyes. As to the method: Synthetic Methods. All reactions were performed open to air unless otherwise noted. Concentration in vacuo was performed on a rotary evaporator. NMR spectra were recorded at 300 or 500 MHz for ^1H and at 75.5 MHz for ^13C with residual solvent signal as internal standard. UV/VIS-near-IR spectra were recorded in quartz cuvettes with a 1-cm path length. Melting points were determined with a capillary melting point apparatus and are uncorrected. […] Pyranones 16b-16d are known compounds (J. Heterocycl. Chem. 1999, 36, 707-717). The synthesis of thiopyranone 16a and 4-methylpyrylium salt 15c is shown in Scheme 2. 4-Methylpyrylium salts 15a, 15d, and 15e have been reported previously in the literature (J. Org. Chem. 1982, 47, 5235-5239; Organometallics 1988, 7, 1131-1147; Dyes Pigm. 2000, 45, 1-7).

The nature of series [3]: Effect of counterion on colloidal stability of SERRS-nanoprobes. The following applies: 10 μM dye. As to the method: Effect of counterion on colloidal stability and SERRS-signal. […] Since SERRS is highly dependent on these factors, we evaluated the effect of the counterion (Z^−) on the SERRS spectrum, intensity, and colloidal stability of the pyrylium-based SERRS-nanoprobes. We compared chloride (Cl^−), bromide (Br^−), perchlorate (ClO4^−), and hexafluorophosphate (PF6^−) as counterions for chalcogenopyrylium dye 1a. The SERRS-nanoprobes were synthesized in the presence of equimolar amounts (10 μM) of CP dye 1a.Z^− (where Z^−═Cl^−, Br^−, ClO4^−, or PF6^−). The counterion introduces almost no difference in optical properties (e.g. absorption maxima, extinction coefficient). Furthermore, with the exception of the chloride counter-ion, the Raman shifts and intensity of 1a were minimally affected by the different counterions (FIG. 17 B). […] Since the PF6^− anion induced the least nanoparticle aggregation, it was used for further SERRS experiments.
SERRS-nanoprobe characterization. […] The size and concentration of the SERRS-nanoprobes were determined on a Nanoparticle Tracking Analyzer (NTA; Malvern Instruments, Malvern, UK). Absorption spectra to determine possible nanoparticle aggregation (typically detectable at wavelengths >600 nm) were measured on an M1000Pro spectrophotometer (Tecan Systems Inc. San Jose, Calif.). […]

For the compound `CCCN1/C(=C\C=C2/CCCC(/C=C/C3=[N+](CCC)c4ccccc4C3(C)C)=C2Sc2ccccc2)C(C)(C)c2ccccc21` [IR792], in series [1], the fluorescence result is “strong fluorescence”.

`C(=Cc1cc(-c2ccccc2)[se+]c(-c2ccccc2)c1)C=C1C=C(c2ccccc2)[Se]C(c2ccccc2)=C1.F[P-](F)(F)(F)(F)F` [Dye 1a, 4-(3-(2,6-diphenyl-4H-selenopyran-4-ylidene)prop-1-enyl)-2,6-diphenylselenopyrylium hexafluorophosphate]: in series [2] (Table 2, Example 2 dyes), the “Log (ε)” value turned out to be 5.40. In addition, in series [2] (Table 2, Example 2 dyes, CH2Cl2), the “λmax (CH2Cl2)” value is given as 806 nm. In addition, the “colloidal stability of SERRS-nanoprobes” value is “strongly destabilized the gold colloids and caused aggregation” in series [3] (counterion Cl^−); “did not affect colloidal stability” in series [3] (counterion PF6^−).

In the case of `C(=Cc1cc(-c2ccccc2)[s+]c(-c2ccccc2)c1)C=C1C=C(c2cccs2)SC(c2cccs2)=C1.F[P-](F)(F)(F)(F)F` [Dye 12, 4-(3-(2,6-dithiophen-2-yl-4H-thiopyran-4-ylidene)prop-1-enyl)-2,6-diphenylthiopyrylium hexafluorophosphate], the “λmax (CH2Cl2)” value in series [2] (absorption maximum in CH2Cl2) is on record as 789 nm. In addition, in series [2] (molar extinction coefficient in CH2Cl2), the “ε (CH2Cl2)” value was found to be 220000 M⁻¹ cm⁻¹.
